Reference: the NIST ThermoML archive (doi:10.1021/je100864e)
Numbers after ± are expanded uncertainties.

Test: osmotic coefficient (dimensionless); mn = molality of the nth substance listed, in mol/kg
Settings: 298.15 K, Liquid, isopiestic method

In the case of `O=C([O-])CC(O)(CC(=O)[O-])C(=O)O.[Na+].[Na+]` [disodium hydrogen citrate] + O, the osmotic coefficient (m1 = 0.2817) is reported as 0.806 ± 0.01, the osmotic coefficient (m1 = 0.2939) is reported as 0.792 ± 0.01 and the osmotic coefficient (m1 = 0.3096) is reported as 0.77 ± 0.012. The osmotic coefficient (m1 = 0.3227) was 0.773 ± 0.011, the osmotic coefficient (m1 = 0.3856) was 0.759 ± 0.012 and the osmotic coefficient (m1 = 0.4011) was 0.753 ± 0.012. The osmotic coefficient (m1 = 0.4258) was 0.75 ± 0.013, the osmotic coefficient (m1 = 0.4592) was 0.724 ± 0.014 and the osmotic coefficient (m1 = 0.4761) was 0.726 ± 0.014. For the same compound, the osmotic coefficient (m1 = 0.4822) was 0.728 ± 0.014, the osmotic coefficient (m1 = 0.5501) was 0.714 ± 0.014 and the osmotic coefficient (m1 = 0.6381) was 0.71 ± 0.015. For the same compound, the osmotic coefficient (m1 = 0.6827) was 0.706 ± 0.015, the osmotic coefficient (m1 = 0.6915) was 0.705 ± 0.015 and the osmotic coefficient (m1 = 0.6951) was 0.707 ± 0.015. The osmotic coefficient (m1 = 0.6997) was 0.708 ± 0.015, the osmotic coefficient (m1 = 1.018) was 0.689 ± 0.016 and the osmotic coefficient (m1 = 1.09) was 0.688 ± 0.016. For the same compound, the osmotic coefficient (m1 = 1.107) was 0.682 ± 0.016, the osmotic coefficient (m1 = 1.246) was 0.688 ± 0.016 and the osmotic coefficient (m1 = 1.329) was 0.682 ± 0.016. For the same compound, the osmotic coefficient (m1 = 1.579) was 0.694 ± 0.015, the osmotic coefficient (m1 = 1.635) was 0.694 ± 0.015 and the osmotic coefficient (m1 = 1.659) was 0.69 ± 0.016. For the same compound, the osmotic coefficient (m1 = 1.731) was 0.69 ± 0.016, the osmotic coefficient (m1 = 1.788) was 0.701 ± 0.015 and the osmotic coefficient (m1 = 1.928) was 0.702 ± 0.015. It also gave an osmotic coefficient (m1 = 1.934) of 0.693 ± 0.015, an osmotic coefficient (m1 = 2) of 0.704 ± 0.015 and an osmotic coefficient (m1 = 2.327) of 0.711 ± 0.014. For the same compound, the osmotic coefficient (m1 = 2.393) was 0.712 ± 0.014 and the osmotic coefficient (m1 = 2.439) was 0.711 ± 0.014.
Work on `O=C([O-])CC(O)(CC(=O)O)C(=O)O.[Na+]` [sodium dihydrogen citrate] + O yielded an osmotic coefficient (m1 = 0.3252) of 0.849 ± 0.008, an osmotic coefficient (m1 = 0.4619) of 0.829 ± 0.009 and an osmotic coefficient (m1 = 0.5944) of 0.82 ± 0.009. For the same compound, the osmotic coefficient (m1 = 0.7158) was 0.803 ± 0.01, the osmotic coefficient (m1 = 0.7377) was 0.81 ± 0.01 and the osmotic coefficient (m1 = 0.7458) was 0.805 ± 0.01. For the same compound, the osmotic coefficient (m1 = 0.7565) was 0.801 ± 0.01, the osmotic coefficient (m1 = 0.7666) was 0.798 ± 0.01 and the osmotic coefficient (m1 = 0.78) was 0.81 ± 0.01. The osmotic coefficient (m1 = 0.9089) was 0.801 ± 0.01 and the osmotic coefficient (m1 = 1.096) was 0.813 ± 0.009.
